What was measured:
[1] = Biodistribution in different organs (drug accumulation study); settings: 48 hours post administration
Protocol: Plasma, tumor and samples of the major organ were collected at intervals out to 340 hours. […] Pharmacokinetic parameters were estimated using WinNonlin software using a non-compartment model.
For each drug, groups of 6 mice were anesthetized at various time points and 0.3 ml of blood, obtained by cardiac puncture, was collected into heparinized tubes. Thereafter, mice were sacrificed before recovering from anesthesia and the following tissues were harvested and frozen from each animal: each of the 4 tumors, lung, liver, spleen, both kidneys, skeletal muscle and heart. […] For each drug a total 72 mice were required (6 mice/time point, 12 time points).

[2] = female, nu/nu, mouse, in vivo, iv, 40 mg/kg
[3] = mouse, in vivo
[4] = system: NCI-H460 non-small cell lung cancer xenograft; settings: 550 mg/kg paclitaxel equivalent, IV, q7dx2, compared to Abraxane
Description: Dosage amounts may be adjusted based on the maximum tolerated dose (MTD) of the pharmaceutical composition.

Row | Compound | amount retained in kidney [1] | amount retained in liver [1] | amount retained in lung [1] | amount retained in spleen [1] | T1/2 Terminal [2] [h] | detected in the feces [3] | tumor volume compared to Abraxane (B16 melanoma) | % TGD (tumor growth delay) [4] [%]
1 | CC(=O)O[C@H]1C(=O)[C@@]2(C)[C@H]([C@H](OC(=O)c3ccccc3)[C@]3(O)C[C@H](OC(=O)[C@H](O)[C@@H](NC(=O)c4ccccc4)c4ccccc4)C(C)=C1C3(C)C)[C@]1(OC(C)=O)CO[C@@H]1C[C@@H]2O [PTX, Paclitaxel] | less than 2 μg/g | less than 2 μg/g | less than 2 μg/g | less than 2 μg/g | 51 | approximately 72% | – | –
2 | poly-(gamma-L-glutamyl glutamine)-paclitaxel [PGGA70K-PTX35] | – | – | – | – | – | – | significantly reduced tumor volume | 136

Source: patent US20090226393A1 (NITTO DENKO CORPORATION, priority 2008, published 2009)
